Source: publication PMC4795001 (Chemical communications (Cambridge, England), 2015)
Read-outs that look alike come from different tables or passages of the source.

Assays:
holo-TycB1 (recombinant) = molecular target: T1, holo-TycB1 (recombinant) (Brevibacillus parabrevis, UniProt O30408); assay: coupled hydroxamate-MesG continuous spectrophotometric assay; assay type: biochemical
T1 sequence (O30408 1-1080 limits assumed): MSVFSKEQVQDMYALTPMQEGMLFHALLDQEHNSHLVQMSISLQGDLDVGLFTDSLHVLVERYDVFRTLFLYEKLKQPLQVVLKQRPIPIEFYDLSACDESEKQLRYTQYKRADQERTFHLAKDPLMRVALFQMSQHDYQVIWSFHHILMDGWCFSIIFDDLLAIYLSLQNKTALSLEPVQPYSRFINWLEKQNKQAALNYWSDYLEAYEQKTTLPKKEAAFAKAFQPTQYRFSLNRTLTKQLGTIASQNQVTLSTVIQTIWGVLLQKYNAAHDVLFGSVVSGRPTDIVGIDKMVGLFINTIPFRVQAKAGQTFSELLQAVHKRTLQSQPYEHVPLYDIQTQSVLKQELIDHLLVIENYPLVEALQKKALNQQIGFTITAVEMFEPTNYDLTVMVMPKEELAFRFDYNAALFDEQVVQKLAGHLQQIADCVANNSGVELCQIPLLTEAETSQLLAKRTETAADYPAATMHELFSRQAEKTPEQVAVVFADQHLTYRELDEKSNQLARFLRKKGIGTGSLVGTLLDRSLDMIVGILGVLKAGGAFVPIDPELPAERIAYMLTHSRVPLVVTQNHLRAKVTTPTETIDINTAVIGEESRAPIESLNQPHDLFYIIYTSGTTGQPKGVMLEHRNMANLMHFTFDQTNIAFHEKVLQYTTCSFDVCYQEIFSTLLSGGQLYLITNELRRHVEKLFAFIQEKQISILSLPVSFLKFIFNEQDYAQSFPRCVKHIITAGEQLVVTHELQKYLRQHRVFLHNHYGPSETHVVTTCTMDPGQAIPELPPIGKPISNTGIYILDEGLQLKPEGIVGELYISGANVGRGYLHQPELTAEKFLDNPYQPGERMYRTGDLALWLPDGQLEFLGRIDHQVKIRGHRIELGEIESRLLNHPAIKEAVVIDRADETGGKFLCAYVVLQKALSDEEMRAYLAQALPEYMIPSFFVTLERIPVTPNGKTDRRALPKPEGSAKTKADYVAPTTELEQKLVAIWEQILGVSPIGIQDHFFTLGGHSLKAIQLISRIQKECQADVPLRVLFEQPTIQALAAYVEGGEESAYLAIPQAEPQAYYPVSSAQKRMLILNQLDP

holo-GrsA (recombinant) = molecular target: T2, holo-GrsA (recombinant) (Aneurinibacillus migulanus, UniProt P0C061); assay: as above; assay type: biochemical; details: read-out: Ki^app; tight-binding; A domain active site
T2 sequence (P0C061 1-1098): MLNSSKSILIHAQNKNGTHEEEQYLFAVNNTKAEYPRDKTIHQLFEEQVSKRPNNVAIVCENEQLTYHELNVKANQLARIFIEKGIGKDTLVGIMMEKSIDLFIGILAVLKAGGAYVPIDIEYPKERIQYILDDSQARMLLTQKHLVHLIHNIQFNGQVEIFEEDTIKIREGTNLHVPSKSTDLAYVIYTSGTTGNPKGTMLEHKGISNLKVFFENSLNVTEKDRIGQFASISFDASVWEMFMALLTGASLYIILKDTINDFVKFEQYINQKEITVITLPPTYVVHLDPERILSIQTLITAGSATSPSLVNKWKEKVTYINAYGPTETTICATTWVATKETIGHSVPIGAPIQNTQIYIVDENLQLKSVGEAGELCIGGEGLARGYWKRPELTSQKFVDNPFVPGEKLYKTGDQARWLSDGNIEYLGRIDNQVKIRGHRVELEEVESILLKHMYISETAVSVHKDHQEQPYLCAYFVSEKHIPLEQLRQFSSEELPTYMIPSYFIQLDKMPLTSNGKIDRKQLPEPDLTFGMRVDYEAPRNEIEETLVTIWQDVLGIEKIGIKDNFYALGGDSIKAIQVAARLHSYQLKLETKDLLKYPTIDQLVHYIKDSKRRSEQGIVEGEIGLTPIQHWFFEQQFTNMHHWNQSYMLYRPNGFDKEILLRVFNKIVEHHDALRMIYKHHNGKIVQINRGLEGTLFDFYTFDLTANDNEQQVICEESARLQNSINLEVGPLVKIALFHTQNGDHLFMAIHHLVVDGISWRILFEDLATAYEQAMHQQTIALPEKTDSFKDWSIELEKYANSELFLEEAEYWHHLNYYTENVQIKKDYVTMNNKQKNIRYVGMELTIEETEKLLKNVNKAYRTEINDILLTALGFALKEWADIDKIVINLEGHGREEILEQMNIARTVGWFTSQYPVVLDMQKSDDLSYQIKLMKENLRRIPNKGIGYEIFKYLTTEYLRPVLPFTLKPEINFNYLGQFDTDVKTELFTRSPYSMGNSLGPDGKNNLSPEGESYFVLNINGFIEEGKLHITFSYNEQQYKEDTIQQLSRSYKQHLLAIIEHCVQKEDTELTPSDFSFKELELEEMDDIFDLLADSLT

Nc1ncnc2c1ncn2[C@@H]1O[C@H](COS(=O)(=O)NC(=O)[C@@H]2CCCN2)[C@@H](O)[C@H]1O [compound 5, L-Pro-AMS]
Ki (holo-TycB1 (recombinant)): 0.431 ± 0.042 µM

L-Phe-AMS-BPyne [compound 1]
Ki (holo-GrsA (recombinant)): 0.00143 ± 0.00019 µM

L-Pro-AMS-BPyne [compound 2]
Ki (holo-TycB1 (recombinant); read-out: Ki^app, tight-binding, A domain active site): 0.327 ± 0.017 µM
